{
  "source": "paper PMC5815658",
  "about": "(Journal of Medicinal Chemistry, 2017)",
  "key": {"[1]": {"target": "T1, pirin (Homo sapiens, UniProt O00625)", "T1 sequence (O00625 1-290)": "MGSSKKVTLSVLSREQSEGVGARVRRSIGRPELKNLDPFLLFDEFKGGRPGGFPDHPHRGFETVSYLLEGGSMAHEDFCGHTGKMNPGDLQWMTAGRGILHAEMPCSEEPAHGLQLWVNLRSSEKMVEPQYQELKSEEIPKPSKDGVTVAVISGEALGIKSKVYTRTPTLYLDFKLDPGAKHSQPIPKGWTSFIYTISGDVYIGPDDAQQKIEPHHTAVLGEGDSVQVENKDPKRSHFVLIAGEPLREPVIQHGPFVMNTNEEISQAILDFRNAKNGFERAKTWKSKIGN", "assay": "TMT MS2 whole proteome mass spectrometry in SK-OV-3 cells", "format": "cell-based", "parameters": "endogenous in cells; host or cells: SK-OV-3", "details": "50 nM, 4 h", "procedure": "PDP 16 Quantified Mass Spectrometry in SK-OV-3 Cells\nSK-OV-3 cells (enough to yield 50μg total protein per sample) treated with DMSO control or 50nM PDP 16 for 4 h. Cells were then harvested and lysed by scraping in urea lysis buffer (20mM HEPES pH 8.0, 9M urea, 1mM sodium orthovanadate, 2.5mM sodium pyrophosphate, 1mM β-glycerophosphate). Samples were sonicated and cent rifuged at 20,000 x g for 15 min and the protein extract (supernatant) collected . The experiment was performed in triplicates. The protein extract samples (supernatant) were then sent to www.proteomics.com, (Accessed September 7, 2017) for analysis.\nProteome Sciences’ proprietary TMT®MS2 workflow was applied for the analysis of total proteomic protein expression. In addition, Proteome Sciences’ bioinformatics tools were applied for data normalization, data integration and statistical analysis .\nWe identified 107318 unique peptides and 8 785 unique protein groups. This coverage of the proteome is within our normal range for peptide and protein identifications in cell line samples. […]\ncomponent analysis (PCA) plots explaining ~64% o f the variance of statistically significant features at peptide level. This observation was consistent with the result at protein level.\nUsing Proteome Sciences’ proprietary TMT®MS2 workflow on a cohort of SK-OV-3 cell line samples derived from ICR’s pirin degradation probe (n=3) and DMSO control (n=3). A reference sample was created from pooling the other samples.\nPAGE confirming a good sample quality. Thus, all samples were processed following TMT®MS2 workflow.\nAll LC-MS/MS runs passed internal quality assessments, based on total ion counts (TICs) and number of peptide spectral matches (PSMs), considering the MS method to be used for data acquisition. Labelling efficiency was over 98.5% across all fractions.\nTMT®MS2 identified 8785 unique protein groups from 107318 unique peptide sequences. This is within the typical range of protein and peptide identifications from cell line samples.\nTotal Peptide Spectral Match: 316215\nTotal Unique Peptide Sequences: 107318\nTotal Unique Protein IDs: 8785\nMedian Standard Deviation and Inter Quartile Range (IQR) were measured for each sample. […]\nProtein solutions of SK -OV-3 cell line samples derived from ICR’s pirin degradation probe (n=3) and DMSO control (n=3) were provided in 9M urea 20 mM HEPES, 1 mM activated sodium orthovanadate, 2.5 mM sodium pyrophosphate, 1 mM b-glycerol-phosphate at pH 8.0. […] The protein concentration of the supernatant was determined by Bradford protein assay and each sample visualized by Coomassie stained (Imperial Stain, Pierce) SDS-PAGE 4-20% gradient gels (Criterion, Biorad) using 10 µg of each sample. […]"}, "[2]": {"target": "T2, pirin protein in SK-OV-3 human ovarian cancer cells (Homo sapiens, UniProt O00625)", "T2 construct": "endogenous in cells; host or cells: SK-OV-3", "T2 sequence (O00625 1-290)": "T1 sequence (O00625 1-290)", "assay": "Pirin depletion in SK-OV-3 cells (immunoblot / capillary electrophoresis immunoassay)", "format": "cell-based", "details": "SK-OV-3 cells", "procedure": "in vivo in athymic mice to increase its tumorigenicity and reliability as a xenograft, and used within 10 passages of banked stocks.\nPrior to use, the cells were analyzed by short tandem repeat (STR) profiling. Polymorphic STR loci were amplified using a polymerase chain reaction (PCR) primer set. The PCR product (each locus being labelled with a different fluorophore) was analyzed simultaneously with size standards using automated fluorescent detection. The number of repeats at 10 different loci (as recommended by the American Type Culture Collection, ATCC) was used to define the STR profile and this was cross-referenced with online databases to confirm authenticity. […]\nthe ATCC reference line (LGC Promochem, UK). […]\nnested PCR protocol (Venor GeM kit, Minerva Biolabs, Germany). Cells were grown in DMEM/10 % FCS, 2 mM glutamine and nonessential amino acids in 5 % CO2.\nSK-OV-3 cells were treated as for each experimental condition. Cells were harvested and lysed by scraping in urea lysis buffer (20 mM HEPES pH 8.0, 9 M urea, 1 mM sodium orthovanadate, 2.5 mM sodium pyrophosphate, 1 mM β-glycerophosphate). […]\nof samples was determined using a bicinchoninic acid (BCA) protein assay kit (Thermo Fisher Scientific). Western blotting was carried out as previously described.10 Pirin and GAPDH antibodies were obtained from Abcam (ab157212) and Merck […]\nSamples were treated, harvested and lysed as described above. A total of 5 μL of 0.2 mg/mL protein was loaded into plates and capillary western analysis was carried out according to the manufacturer’s instructions (ProteinSimple WES). The data was analyzed with the Compass software (ProteinSimple).\nSigma-Aldrich and Cell Signaling Technology, respectively.\n10 Sharp SY, Boxall K, Rowlands M, Prodromou C, Roe SM, Maloney A, Powers M, Clarke PA, Box G, Sanderson S, Patterson L, Matthews TP, Cheung KM, Ball K, Hayes A, Raynaud F, Marais R, Pearl L, Eccles S, Aherne W, McDonald E, Workman P. In vitro biological characterization of a novel, synthetic diaryl pyrazole resorcinol class of heat shock protein 90 inhibitors."}},
  "data": [
    {"smiles": "O=C1CCC(N2C(=O)c3cccc(OCCOCCOCCN4CCN(Cc5ccc6cc(C(=O)Nc7cc(NC(=O)c8ccc9c(c8)OCCO9)ccc7Cl)ccc6n5)CC4)c3C2=O)C(=O)N1", "note": "(stereo not shown) [PDP 16, N-(2-Chloro-5-(2,3-dihydrobenzo[b][1,4]dioxine-6-carboxamido)phenyl)-2-((4-(2-(2-(2-((2-(2,6-dioxopiperidin-3-yl)-1,3-dioxoisoindolin-4-yl)oxy)ethoxy)ethoxy)ethyl)piperazin-1-yl)methyl)quinoline-6-carboxamide]", "values": [
      {"measurement": "Proteins with statistically significant (p(adj) < 0.05) difference in expression", "setting": "[1]; 8547 quantifiable proteins", "result": "only pirin"},
      {"measurement": "P.Value pirin (PIR, O00625), PDP vs Veh", "setting": "[1]; TMT", "result": "1.64E-08"},
      {"measurement": "Reduction of pirin protein expression vs vehicle", "setting": "[1]; TMT", "result": 2.3, "unit": "fold"},
      {"measurement": "logFC pirin (PIR, O00625), PDP vs Veh", "setting": "[1]; TMT", "result": -1.208},
      {"measurement": "Pirin degradation", "setting": "[2]; 50 nM, 2 h exposure, Figure 3A", "result": "near complete pirin degradation"},
      {"measurement": "Concentration-response shape with increasing concentration", "setting": "[2]; 50 to 1500 nM, up to 24 h", "result": "clear hook effect"},
      {"measurement": "Lowest concentration with pirin degradation activity", "setting": "[2]; 2 h exposure, Figure 3B", "result": 0.5, "unit": "nM"}
    ]}
  ]
}
